The values below come from PubChem BioAssay (NCI).

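Results reflect a 48-hour exposure of cells in 96-well plates to compound at five concentrations. TGI is the concentration that stops growth completely.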

Holding throughout (assay): NCI tumour cell line growth inhibition, 48 h
Assay [1] relates to ACHN renal.
The subject of assay [2] is BT-549 breast.
Assay [3] relates to HL-60(TB) leukemia.
The test system of assay [4] is LOX IMVI melanoma.
The test system of assay [5] is MALME-3M melanoma.
The test system of assay [6] is MDA-MB-231 breast.
In assay [7] the test system is MDA-MB-435.
The test system of assay [8] is NCI-H23 lung.
In assay [9] the test system is NCI-H522 lung.
Assay [10] deals with SK-MEL-2 melanoma.
Assay [11] deals with SK-OV-3 ovarian.
Assay [12] relates to SNB-75 CNS.
The subject of assay [13] is NCI-H460 lung.
For assay [14], the system named is SF-539 CNS.

With `FC1=C2CCCCCC2SC1(F)F` (centres undefined), the TGI in assay [1] was 79.3 µM; in assay [2], more than 100 µM; in assay [3], 33.9 µM; in [4], 31.4 µM; in [5], 52.4 µM; in assay [6] it was more than 100 µM. Moreover, the TGI in assay [7] is 70.7 µM; in [8] it was more than 100 µM; in assay [9] it was 29.2 µM; in [10], more than 100 µM; in assay [11] it was more than 100 µM; in [12], more than 100 µM.

Consider `CC1=C(C(=O)OC(C)C)C(c2ccccc2C(F)(F)F)C(C(=O)OC(CO[N+](=O)[O-])CO[N+](=O)[O-])=C(C)N1` (centres undefined), for which the TGI in assay [1] is 22.1 µM; in [2] it was 22.1 µM; in [3], more than 100 µM; in assay [4], 21.1 µM; in assay [5] it was 33 µM; in assay [6] it was 28.2 µM. The TGI in assay [7] was 27.4 µM; in [8] it was more than 100 µM; in assay [13], 42.6 µM; in [9], 14.2 µM; in [14], 23.2 µM; in assay [10], 47.1 µM. The TGI in [11] came out at 38.9 µM; in assay [12], 16.7 µM.

As to `c1ccc(CC2(c3cc4ccccc4[nH]3)OCCO2)nc1`, the TGI in [1], in [2], in assay [3], in [4], in assay [5] and in assay [6] was more than 100 µM in each case. In addition, the TGI in assay [7], in assay [8], in assay [13], in assay [9], in assay [14] and in assay [10] was more than 100 µM in each case. The TGI in assay [11] and in assay [12] was more than 100 µM in each case.

With `O=c1ccn(C2OC(CN(O)CCC3C(CO)OC(n4ccc(=O)[nH]c4=O)C3O)C(O)C2O)c(=O)[nH]1` (centres undefined), the TGI in [1], in assay [2], in assay [3], in assay [5], in [6] and in assay [7] was more than 100 µM each time. Moreover, the TGI in assay [8], in [13], in assay [10], in assay [11] and in [12] was more than 100 µM each time.

Take `Cc1nc2c(=O)n3c4c(cccc4c2o1)CCC3`: the TGI in assay [1], in [2], in [3], in [4], in [5] and in [6] was more than 100 µM each time. Further, the TGI in assay [7], in [8], in assay [13], in assay [14], in assay [10] and in assay [11] was more than 100 µM each time. The TGI in assay [12] is more than 100 µM.

As to `CCOC(=O)C(=O)C(CCC(=O)c1ccc2ccccc2c1O)C(=O)OCC` (centres undefined), the TGI in assay [1], in assay [2], in assay [3], in assay [4], in assay [5] and in assay [6] was more than 100 µM throughout. In addition, the TGI in assay [7], in assay [8], in [13], in assay [9], in assay [14] and in assay [10] was more than 100 µM in each case. Moreover, the TGI in assay [11] and in [12] was more than 100 µM in each case.

`COc1ccc(NC2CC(C)N(C(=O)c3ccccc3)O2)cc1` (centres undefined): the TGI in [1], in assay [2], in assay [3], in [4], in [5] and in assay [6] was more than 10 µM throughout. In addition, the TGI in [7], in [8], in assay [13], in assay [9], in assay [14] and in [10] was more than 10 µM throughout. For the same compound, the TGI in [11] and in assay [12] was more than 10 µM in each case.

In the case of `C/C(=N\Nc1nc2ccccc2s1)c1cc(C)ncn1`, the TGI in [1] is more than 32 µM; in [2], more than 46.3 µM; in [3], more than 100 µM; in [4], more than 100 µM; in assay [5] it was more than 36.1 µM; in [6] it was 9.47 µM. The TGI is more than 54.1 µM in assay [7]; 15.7 µM in [8]; 9.16 µM in assay [13]; 5.04 µM in assay [9]; 35 µM in assay [14]; 23 µM in [10]. For the same compound, the TGI is more than 35.7 µM in assay [11] and 15.1 µM in assay [12].

For the compound `CC(=O)OCC(Br)C1(C)CCC(C(C)(C)Br)O1` (centres undefined), the TGI in assay [1], in assay [2], in assay [3], in assay [4], in assay [5] and in [6] was more than 100 µM in each case. In addition, the TGI in assay [7] is more than 100 µM; in [8], more than 100 µM; in assay [13], more than 100 µM; in assay [9], 86.7 µM; in [14], more than 100 µM; in [10], more than 100 µM. Moreover, the TGI in assay [11] and in [12] was more than 100 µM throughout.

As to `Cc1c(C)c(S(=O)(=O)N(CCCCCON)OCCCN)c(C)c2c1OC(C)(C)CC2`, the TGI in assay [1] was 30 µM; in assay [2] it was 29.3 µM; in [3] it was 17.3 µM; in assay [4], 22.5 µM; in assay [5], 27.4 µM; in [6], 30.4 µM. The TGI in assay [7] was 24.8 µM; in assay [8], 29.6 µM; in assay [13] it was 22.4 µM; in assay [9] it was 31.6 µM; in assay [14] it was 28.5 µM; in [10] it was 29.1 µM. Moreover, the TGI in assay [11] came to 28.1 µM; in [12] it was 27.3 µM.
